≈ marks a conversion by molar mass, not a printed value.
Assays:
[1] = test system: Staphylococcus aureus SG 511; test: Agar diffusion test (hole-test); format: cell-based; conditions: SG511, 18-20 hours at 37° C., read-out: MIC, A.D.T., Staphylococcus aureus SG 511
Protocol: (§1) The inhibitory effect on bacteria and fungi was examined by the serial dilution test and the agar diffusion test (hole-test). As bacteria were used: Staphylococcus aureus SG 511, Streptococcus Aronson, Streptococcus pyogenes At CC 86 68; as fungi: Candida albicans AT CC 10231, Trichophyton mentagrophytes AT CC 9129 and Aspergillus niger.
1. Meat extract agar: for St. aureus SG 511
(§2) The age of the primary cultures is 24 hours for bacteria and 14 days for fungi. The standardization of the suspension of microorganisms is effected using a photometer according to Eppendorf (test tube .phi.14 mm, filter 546 nm) and a suspension for comparison consisting of barium sulfate, this suspension being created by addition of 3.0 ml of 1% barium chloride solution to 97 ml of 1% sulfuric acid. After the standardization St. aureus SG 511 was diluted 1:1000 and Sc. pyogenes and Aronson 1:100 by means of sodium chloride solution. The fungi were used in an undiluted state.
(§3) 40 mgm of the substance were put into a 10 ml measuring flask and filled up to the mark with the solvent (corresponds to a dilution of 1:250=4000 μg/ml).
(§4) The dilutions to the concentrations under test were effected with distilled water or the respective solvent.
(§5) 19 ml of the nutrient medium were filled into sterile Petri dishes of a diameter of 8 cm and dried. Subsequently the agar plates were charged with 4 ml of seed agar. 100 ml of seed agar contain 1.25 ml of the suspension of microorganisms, an agar plate thus containing 0.05 ml of the suspension of microorganisms. After solidification of the agar, 5 holes of a diameter of 5 mm were punched into the plates and filled with 0.05 ml of the correspondingly concentrated substance solution.
(§6) Control tests merely using the solvent are to be carried out simultaneously.
(§7) Bacteria were incubated at 37° C. for 18-20 hours and fungi at 27° C. for 7 days.
(§8) The diameter of the area of inhibition in mm was measured after having deducted the diameter of the hole.

[2] = test system: Streptococcus pyogenes At CC 86 68; test: Agar diffusion test (hole-test); format: cell-based; conditions: ATCC8668, 18-20 hours at 37° C., read-out: MIC, A.D.T., Streptococcus pyogenes
Protocol: as §1
(§9) 2. Glucose agar: for Sc. Aronson and St. pyogenes Recipe see meat extract agar. After sterilization 1 weight percent of glucose is added as a sterile 50% solution.
as §2, §3, §4, §5, §6, §7, §8

Streptococcus Aronson [3] = test: Agar diffusion test (hole-test); format: cell-based; conditions: 18-20 hours at 37° C., read-out: MIC, A.D.T., Streptococcus Aronson
Protocol: as §1, §9, §2, §3, §4, §5, §6, §7, §8

[4] = test system: Staphylococcus aureus SG 511; test: Serial dilution test; format: cell-based; conditions: Staphylococcus aureus, SG511, 18-20 hours at 37° C., read-out: MIC, S.D.T., Staphylococcus aureus SG 511
Protocol: as §1
1. Meat extract broth: for St. aureus SG 511
(§10) The age of the primary cultures is 24 hours for bacteria and 14 days for fungi. The standardization of the suspension of microorganisms is effected using a photometer according to Eppendorf (test tube .phi.14 mm, filter 546 nm) and a suspension for comparison consisting of barium sulfate, this suspension being created by adition of 3.0 ml of 1% barium chloride solution to 97 ml of 1% sulfuric acid. After the standardization the bacteria were further diluted to a concentration of 1:1000 by means of sodium chloride solution, the fungi were used in an undiluted state.
(§11) 40 mgm of the substance were put into a 10 ml measuring flask and filled up to the mark with the solvent (corresponds to a dilution of 1:250=4000 μg/ml). The further dilution series was standardized with distilled water or the respective solvent and the following substance concentrations were prepared: 1000; 250; 62.5 μg/ml.
(§12) The tubes were filled with 4.9 ml of the corresponding liquid nutrient medium. Then 0.1 ml of the substance dilution prepared above was added to each tube, so that the mentioned final concentrations were present. Finally each tube was inoculated with 0.1 ml of the standardized suspension of microorganisms. Control tests merely using the solvent are to be carried out simultaneously.
as §7
(§13) The measurement is carried out macroscopically defining the minimal inhibitory concentration (the lowest still microbiostatically effective concentration).

[5] = test system: Streptococcus pyogenes At CC 86 68; test: Serial dilution test; format: cell-based; conditions: Streptococcus pyogenes, ATCC8668, 18-20 hours at 37° C., read-out: MIC, S.D.T., Streptococcus pyogenes
Protocol: as §1
(§14) 2. Glucose broth: for Sc. Aronson and St. pyogenes Recipe see meat extract broth. After sterilization 1 weight percent of glucose is added as a sterile 50% solution.
as §10, §11, §12, §7, §13

Streptococcus Aronson [6] = test: Serial dilution test; format: cell-based; conditions: for MIC: Streptococcus, 18-20 hours at 37° C., read-out: MIC, S.D.T., Streptococcus Aronson
Protocol: as §1, §14, §10, §11, §12, §7, §13

Corynebacterium acnes = test: Serial dilution test for Corynebacterium acnes; format: cell-based; conditions: for MIC: Cutibacterium acnes, 37° C. for 48 hours, read-out: MIC, S.D.T., Corynebacterium acnes
Protocol: Serial dilution test for Corynebacterium acnes and Pityrosporum ovale Nutrient medium
For Corynebacterium acnes: thioglycolate-broth for Pityrosporum ovale: Littmann's broth, 5 ml per tube.
Suspension of microorganisms in 0.9% sodium chloride solution, standardized using a photometer according to Eppendorf by means of a suspension for comparison consisting of barium sulfate, for Corynebacterium acnes in a dilution of 1:100, for Pityrosporum ovale in an undiluted state. 0.1 ml of the suspensions was used per test tube. Dimethyl sulfoxide served as a solvent for the substances.
The suspension with Corynebacteria acnes was incubated at 37° C. for 48 hours, the suspension of Pityrosporum ovale at 27° C. for 7 days. The reading was effected by macroscopic evaluation of the growth of microorganisms and registration of the minimal inhibitory concentration.

HeLa-cell culture = test: Inhibition of HeLa cell cultures; format: cell-based; conditions: Homo sapiens, 72 h, 37° C. for 3 days, 5% carbon dioxide; for IC50: read-out: ED50, HeLa cell culture; for minimal effective concentration: read-out: Minimal inhibitory concentration, HeLa cell culture
Protocol: Measurement of the inhibition of cell cultures
HeLa-cell culture was treated with trypsin and adjusted to a cell number of 150,000 cells/ml of fresh medium. The substance was always dissolved in the same quantity of dimethyl sulfoxide and then further diluted with growth medium. 0.1 ml of the substance-dilutions were added to each well of microtiter plates and then 0.2 ml of cell suspension were added (4 wells per dilution). Several growth controls containing 0.1 ml of growth medium instead of 0.1 ml of substance dilution were put up. After careful mixing, the cultures were incubated at 37° C. for 3 days in a 5% carbon dioxide atmosphere. The reading was effected in comparison with these controls. The results were given as the percentage of the deficiency and degeneration compared to the growth control. […] The statements are referred to μg of substance per ml of total medium.

[7] = target: glucose-6-phosphate-dehydrogenase; test: Inhibition of glucose-6-phosphate-dehydrogenase (G6PDH); format: biochemical
Protocol: Measurement of the inhibition of the glucose-6-phosphatedehydrogenase
The equilibrium was observed:
Glucose-6-phosphate+NADP^+ G6-DH gluconic
acid-6-phosphate+NADPH+H^+
(NADP=nicotinamide-adenine-dinycleotide-phosphate, G6P-DH=gluconic acid-6-phosphate-dehydrogenase)
The formation velocity of NADPH is a measure for the enzyme activity; it may be observed by means of the extinction increase at 340, 334 or 366 nm per unit of time.
0.025 ml of glucose-6-phosphate-dehydrogenase (Boehringer Mannheim) were filled up to 10 ml of distilled water (solution I). 100 mgm of nicotinamide-adenine-dinucleotide-phosphate were dissolved in 13 ml of distilled water (solution II). 47.2 mgm of glucose-6-phosphate were dissolved in further 10 ml of distilled water (solution 3). Simultaneously a buffer solution (solution IV) was prepared as follows: 0.28 gm of triethanolamine-hydrochloride and 1.461 gm of ethylene diaminotetraacetic acid-disodium salt were dissolved in 1 liter of distilled water and adjusted to a pH of 7.6 with sodium hydroxide solution. The substance under test was dissolved in dimethyl formamide or ethanol (solution V). Tested concentrations: 50; 25; 12.5; 6.25; 3.125; 1.56 and 0.78 μg/ml.
0.1 ml of solution I, 0.1 ml of solution II, 2.67 ml of solution IV and 0.03 ml of solution V were mixed and kept at 25° C. for 5 minutes. Then 0.1 ml of solution III was added, mixed and the alteration of extinction was determined spectrophotometrically at 366 nm for 3 minutes.
0.1 ml of solution I, 0.1 ml of solution II, 2.67 ml of solution IV and 0.03 ml of solution V were mixed and kept at 37° C. for 60 minutes. Then 0.1 ml of solution III was added, mixed and the alteration of extinction was measured spectrophotometrically at 366 nm for 3 minutes.
The inhibitory values were calculated from the average values of three measurements (alteration of extinction per minute) compared with controls, which received the pure solvent as the inhibitory solution. Then the ED50 was calculated according to Reed and Muench from the inhibitory values for the various concentrations.

[8] = reduced growth at this concentration

Row | Compound | MIC [1] | MIC [2] | MIC (Streptococcus Aronson [3]) | MIC [4] | MIC [5] | MIC (Streptococcus Aronson [6]) | Concentration with reduced growth (value in brackets), S.D.T., Streptococcus Aronson (Streptococcus Aronson [6]; [8]) | MIC (Corynebacterium acnes) | IC50 (HeLa-cell culture) | minimal effective concentration (HeLa-cell culture) | Concentration with reduced growth (value in brackets), S.D.T., Corynebacterium acnes (Corynebacterium acnes; [8]) | G6PDH-inhibition Ed50, Immediate Inhibition ([7]; 25° C. for 5 minutes preincubation) | G6PDH-inhibition Ed50, Inhibition of Incubation ([7]; 37° C. for 60 minutes preincubation)
1 | CCCCCCCCC(C)c1c(O)ccc(C(=O)C(F)(F)F)c1O (stereo not shown) [M] | 250 µg/mL (≈ 722 µM) | ≤ 15.6 µg/mL | ≤ 15.6 µg/mL | 1.25 µg/mL (≈ 3.61 µM) | 1.25 µg/mL (≈ 3.61 µM) | 20 µg/mL (≈ 57.7 µM) | 1.25 µg/mL | 0.31 µg/mL (≈ 0.895 µM) | – | – | – | – | –
2 | O=C(c1ccc(O)c(C2CCCC2)c1O)C(F)(F)F [N, 2,4-Dihydroxy-3-cyclopentyl-trifluoroacetophenone] | ≤ 15.6 µg/mL | 62.5 µg/mL (≈ 228 µM) | ≤ 15.6 µg/mL | 1.25 µg/mL (≈ 4.56 µM) | 0.31 µg/mL (≈ 1.13 µM) | 1.25 µg/mL (≈ 4.56 µM) | – | 0.31 µg/mL (≈ 1.13 µM) | 5.32 µg/mL (≈ 19.4 µM) | 3.13 µg/mL | – | – | –
3 | O=C(c1ccc(O)c(C2CCCCCC2)c1O)C(F)(F)F [O, 2,4-Dihydroxy-3-cycloheptyl-trifluoroacetophenone] | ≤ 15.6 µg/mL | ≤ 15.6 µg/mL | ≤ 15.6 µg/mL | 0.31 µg/mL (≈ 1.03 µM) | 0.08 µg/mL (≈ 0.265 µM) | 0.31 µg/mL (≈ 1.03 µM) | – | 1.25 µg/mL (≈ 4.14 µM) | – | – | 0.31 µg/mL | – | –
4 | CCc1cc(C(=O)C(F)(F)F)c(O)c(Cc2c(O)c(CC)cc(C(=O)C(F)(F)F)c2O)c1O [R, Methylene-bis-(2,6-dihydroxy-3-ethyl-5-trifluoro-acetyl)-benzene] | ≤ 15.6 µg/mL | ≤ 15.6 µg/mL | ≤ 15.6 µg/mL | 0.08 µg/mL (≈ 0.167 µM) | 0.005 µg/mL (≈ 0.0104 µM) | 0.31 µg/mL (≈ 0.645 µM) | – | 0.005 µg/mL (≈ 0.0104 µM) | – | – | – | – | –
5 | Cc1c(O)c(Cc2cc(C(=O)C(F)(F)F)c(O)c(C)c2O)cc(C(=O)C(F)(F)F)c1O [S, Methylene-bis-(2,4-dihydroxy-3-methyl-5-trifluoro-acetyl)-benzene] | ≤ 15.6 µg/mL | ≤ 15.6 µg/mL | ≤ 15.6 µg/mL | 1.25 µg/mL (≈ 2.76 µM) | 1.25 µg/mL (≈ 2.76 µM) | 1.25 µg/mL (≈ 2.76 µM) | – | 0.31 µg/mL (≈ 0.685 µM) | 3.8 µg/mL (≈ 8.4 µM) | ≤ 0.78 µg/mL | – | – | –
6 | CC(C)c1c(O)c(Cc2cc(C(=O)C(F)(F)F)c(O)c(C(C)C)c2O)cc(C(=O)C(F)(F)F)c1O [Z, Methylene-bis-(2,4-dihydroxy-3-isopropyl-5-trifluoro-acetyl)-benzene] | – | – | – | – | – | – | – | – | – | – | – | 0.58 µg/mL | 0.13 µg/mL
